Assay type in all cases: biochemical
One assay deals with T1, wt-FLT3 (Homo sapiens, UniProt P36888).
T1 construct: FLT3 kinase catalytic domain (residues Y567˜S993); made in house; host or cells: Sf9 insect cells (baculovirus, pBac-PAK8-GST-FLT3-KD plasmid)
T1 sequence (P36888 567-993): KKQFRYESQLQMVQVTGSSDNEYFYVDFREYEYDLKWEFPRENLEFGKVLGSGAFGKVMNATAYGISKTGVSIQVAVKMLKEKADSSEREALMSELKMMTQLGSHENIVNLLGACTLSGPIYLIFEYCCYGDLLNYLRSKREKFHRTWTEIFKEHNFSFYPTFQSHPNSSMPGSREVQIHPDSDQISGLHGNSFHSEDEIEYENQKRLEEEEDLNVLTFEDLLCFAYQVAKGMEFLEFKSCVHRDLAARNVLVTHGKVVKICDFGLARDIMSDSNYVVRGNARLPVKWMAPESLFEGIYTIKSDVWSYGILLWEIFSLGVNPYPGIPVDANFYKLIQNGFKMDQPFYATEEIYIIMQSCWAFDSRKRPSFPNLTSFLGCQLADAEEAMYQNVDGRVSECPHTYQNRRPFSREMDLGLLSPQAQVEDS
In words: FLT3 WT Kinase-Glo assay. The conditions noted are these: FLT3 WT Kinase-Glo, 1 μM ATP; read-out: IC50. The method, then:
GST-FLT3-KD^WT containing the FLT3 kinase catalytic domain (residues Y567˜S993) were expressed in Sf9 insect cells transfected the baculovirus containing pBac-PAK8-GST-FLT3-KD plasmid. […] Following incubation, 50 μl Kinase-Glo Plus Reagent (Promega, Madison, Wis., USA) was added to each well and the mixture was incubated at 25° C. for 20 min. A 70-μL aliquot of each reaction mixture was transferred to a black microtiter plate and the luminescence was measured on Wallac Vector 1420 multilabel counter (PerkinElmer, Shelton, Conn., USA).

Another assay concerns the target T2, Aurora A (Homo sapiens, UniProt O14965).
T2 construct: GST-Aurora A (residues S123-S401); GST (N); made in house; host or cells: Sf9 insect cells
T2 sequence (O14965 123-401): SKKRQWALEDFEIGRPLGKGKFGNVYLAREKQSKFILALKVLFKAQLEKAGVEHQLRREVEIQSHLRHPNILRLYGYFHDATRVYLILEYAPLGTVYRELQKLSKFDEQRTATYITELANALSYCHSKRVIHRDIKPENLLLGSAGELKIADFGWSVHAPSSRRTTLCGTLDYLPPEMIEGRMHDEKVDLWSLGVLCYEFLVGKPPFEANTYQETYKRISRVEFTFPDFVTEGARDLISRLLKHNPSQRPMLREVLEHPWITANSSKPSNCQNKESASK
In words: Aurora kinase A Kinase-Glo kinase assay. The conditions noted are these: Aurora A assay, 5 μM ATP, read-out: IC50. The method, then:
The recombinant GST-Aurora A (residues S123-S401) containing kinase domain were expressed in Sf9 insect cells. The kinase assay were carried out in 96-well plates with tested compound in a final volume of 50 μl reaction at 37° C. for 90 minutes with following components: 50 mM Tris-HCl pH 7.4, 10 mM NaCl, 10 mM MgCl2, 0.01% BSA, 5 μM ATP, 1 mM DTT and 15 μM tetra(LRRASLG) peptide, and 150 ng recombinant Aurora A. Following incubation, 50 μl Kinase-Glo Plus Reagent (Promega, Madison, Wis., USA) was added to each well and the mixture was incubated at 25° C. for 20 min. A 70-μL aliquot of each reaction mixture was transferred to a black microtiter plate and the luminescence was measured on Wallac Vector 1420 multilabel counter (PerkinElmer, Shelton, Conn., USA).

The next assay concerns the target T3, VEGFR1 (Homo sapiens, UniProt P17948).
T3 construct: GST-VEGFR1 (residues R781-I1338); GST (N); made in house; host or cells: Sf9 insect cells
T3 sequence (P17948 781-1338): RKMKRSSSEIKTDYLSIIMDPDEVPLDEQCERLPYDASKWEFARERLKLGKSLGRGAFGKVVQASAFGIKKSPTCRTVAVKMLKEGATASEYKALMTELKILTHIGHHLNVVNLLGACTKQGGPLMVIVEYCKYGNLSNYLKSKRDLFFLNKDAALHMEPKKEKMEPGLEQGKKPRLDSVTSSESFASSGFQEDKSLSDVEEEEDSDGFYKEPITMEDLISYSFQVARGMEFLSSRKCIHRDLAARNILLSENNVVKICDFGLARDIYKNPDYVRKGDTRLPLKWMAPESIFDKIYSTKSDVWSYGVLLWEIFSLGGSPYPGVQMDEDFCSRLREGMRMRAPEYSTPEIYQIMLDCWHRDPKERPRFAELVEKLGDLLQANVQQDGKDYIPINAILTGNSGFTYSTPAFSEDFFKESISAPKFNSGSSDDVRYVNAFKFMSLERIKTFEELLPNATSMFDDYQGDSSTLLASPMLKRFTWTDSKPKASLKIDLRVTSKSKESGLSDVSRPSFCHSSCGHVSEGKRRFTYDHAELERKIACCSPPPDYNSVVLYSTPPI
In words: VEGFR1 Kinase-Glo kinase assay. The conditions noted are these: VEGFR1 assay, 1 μM ATP, read-out: IC50. The method, then:
(§1) The recombinant GST-VEGFR1 (residues R781-I1338) or GST-VEGFR2 (residues V789-V1356) containing kinase domain were expressed in Sf9 insect cells. The kinase assay were carried out in 96-well plates with tested compound in a final volume of 50 μl reaction at 30° C. for 120 minutes with following components: 25 mM HEPES pH 7.4, 10 mM MgCl2, 4 mM MnCl2, 0.5 mM Na3VO4, 2 mM DTT, 0.02% Triton X100, 0.01% BSA, 1 μM ATP, 2 μM polyGlu4:Tyr peptide, 50˜100 ng recombinant VEGFR1 or VEGFR2. Following incubation, 50 μl Kinase-Glo Plus Reagent (Promega, Madison, Wis., USA) was added to each well and the mixture was incubated at 25° C. for 20 min. A 70-μL aliquot of each reaction mixture was transferred to a black microtiter plate and the luminescence was measured on Wallac Vector 1420 multilabel counter (PerkinElmer, Shelton, Conn., USA).

Another assay concerns the target T4, VEGFR2 (Homo sapiens, UniProt P35968).
T4 construct: GST-VEGFR2 (residues V789-V1356); GST (N); made in house; host or cells: Sf9 insect cells
In words: VEGFR2 Kinase-Glo kinase assay. The conditions noted are these: VEGFR2 assay, 1 μM ATP, read-out: IC50. The method, then:
as §1

Where two headings read alike, the source gives them in different places.

T4 sequence (P35968 789-1356): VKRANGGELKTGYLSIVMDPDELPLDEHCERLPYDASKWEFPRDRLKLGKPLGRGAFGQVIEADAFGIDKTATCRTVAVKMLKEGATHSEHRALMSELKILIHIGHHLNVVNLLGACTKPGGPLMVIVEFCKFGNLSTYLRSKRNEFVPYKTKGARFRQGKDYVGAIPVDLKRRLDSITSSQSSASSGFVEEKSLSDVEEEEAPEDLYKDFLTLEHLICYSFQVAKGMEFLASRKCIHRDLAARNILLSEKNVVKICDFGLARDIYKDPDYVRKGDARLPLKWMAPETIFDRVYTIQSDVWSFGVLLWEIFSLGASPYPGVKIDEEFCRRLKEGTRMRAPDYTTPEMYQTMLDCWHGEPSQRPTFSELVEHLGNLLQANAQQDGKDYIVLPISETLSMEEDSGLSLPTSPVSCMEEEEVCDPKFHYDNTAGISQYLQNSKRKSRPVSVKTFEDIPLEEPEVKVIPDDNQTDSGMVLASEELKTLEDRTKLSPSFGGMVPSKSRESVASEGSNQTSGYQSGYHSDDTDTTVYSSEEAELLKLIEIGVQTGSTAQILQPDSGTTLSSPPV

For the molecule `CCN1CCN(c2cc(Nc3ncc(-c4ccc(N)cc4)s3)nc(C)n2)CC1` [Compound 102], the IC50 (usually the concentration at which inhibition is half-maximal) at wt-FLT3 was 1 to 20 nM; on Aurora A (bound in nM) it was under 200 nM.

Regarding `CN1CCN(c2ccc(C(=O)Nc3cc(-c4ccc(CNC(=O)OCc5ccccc5)cc4)n[nH]3)cc2)CC1` [Compound 70, Benzyl-N-[4-(5-[4-(4-methylpiperazino)benzoyl]amino-1H-3-pyrazolyl)benzyl]carbamate], the half-maximal inhibitory concentration (IC50) at wt-FLT3 was 1 to 20 nM; at VEGFR1 (bound in nM), under 100 nM; at VEGFR1 (bound in μM) it was under 1000 nM; on VEGFR2 (bound in μM), under 1 µM; at VEGFR2 (ranges in nM) it was 0.055 to 0.4 µM; at Aurora A (bound in μM), under 1000 nM.

Regarding `CN1CCN(c2ccc(C(=O)Nc3cc(-c4ccc(NC(=O)c5ccccc5)cc4)n[nH]3)cc2)CC1` [Compound 10, N1-3-[4-(benzoylamino)phenyl]-1H-5-pyrazolyl-4-(4-methylpiperazino)benzamide], the IC50 at Aurora A (bound in nM) is under 200 nM; on Aurora A (bound in μM) it was under 1000 nM.

As for `O=C(NCc1ccc(-c2cc(NC(=O)c3ccc(OCCN4CCOCC4)cc3)[nH]n2)cc1)Nc1ccccc1` [Compound 61a, N1-[3-(4-[(anilinocarbonyl)amino]methylphenyl)-1H-5-pyrazolyl]-4-(2-morpholinoethoxy)benzamide], the IC50 on wt-FLT3 is 1 to 20 nM; on VEGFR2 (bound in μM), under 1 µM; on VEGFR2 (ranges in nM), 0.001 to 0.055 µM; on Aurora A (bound in μM), under 1000 nM.

With `Cc1cc(NC(=O)Nc2ccc(-c3cc(NC(=O)c4ccc(N5CCN(C)CC5)cc4)[nH]n3)cc2)no1` [Compound 32, N1-3-[4-([(5-methyl-3-isoxazolyl)amino]carbonylamino)phenyl]-1H-5-pyrazolyl-4-(4-methylpiperazino)benzamide], the IC50 was 1 to 20 nM on wt-FLT3; under 1000 nM on VEGFR1 (bound in μM); under 1 µM on VEGFR2 (bound in μM); 0.001 to 0.055 µM on VEGFR2 (ranges in nM); under 200 nM at Aurora A (bound in nM); under 1000 nM on Aurora A (bound in μM).

For the molecule `CC(C)(C)c1cc(NC(=O)Nc2ccc(-c3cc(NC(=O)c4ccc(OCCN5CCOCC5)cc4)[nH]n3)cc2)no1` [Compound 44, N1-(3-4-[([5-(tert-butyl)-3-isoxazolyl]aminocarbonyl)amino]phenyl-1H-5-pyrazolyl)-4-(2-morpholinoethoxy)benzamide], the IC50 at wt-FLT3 was 1 to 20 nM; at VEGFR1 (bound in nM) it was under 100 nM; on VEGFR1 (bound in μM) it was under 1000 nM; on VEGFR2 (bound in μM), under 1 µM; at VEGFR2 (ranges in nM) it was 0.001 to 0.055 µM; at Aurora A (bound in nM), under 200 nM. The 50% inhibitory concentration (IC50) at Aurora A (bound in μM) was under 1000 nM.

As to `Cc1cc(NC(=O)Nc2ccc(-c3cc(NC(=O)c4ccc(N5CCN(C)CC5)cc4)[nH]n3)cc2C)no1` [Compound 47, N1-3-[3-methyl-4-([(5-methyl-3-isoxazolyl)amino]carbonylamino)phenyl]-1H-5-pyrazolyl-4-(4-methylpiperazino)benzamide], the IC50 was 1 to 20 nM at wt-FLT3, under 1 µM on VEGFR2 (bound in μM), 0.001 to 0.055 µM at VEGFR2 (ranges in nM) and under 1000 nM on Aurora A (bound in μM).

Take `Cc1nc(Nc2cc(-c3cccc(NS(=O)(=O)c4ccccc4)c3)n[nH]2)cc(N2CCN(C)CC2)n1` [Compound 85, N1-[3-(5-[2-methyl-6-(4-methylpiperazino)-4-pyrimidinyl]amino-1H-3-pyrazolyl)phenyl]-1-benzenesulfonamide]: the IC50 is 1 to 20 nM at wt-FLT3; under 1000 nM at VEGFR1 (bound in μM); under 1 µM at VEGFR2 (bound in μM); 0.055 to 0.4 µM at VEGFR2 (ranges in nM); under 1000 nM on Aurora A (bound in μM).

Turning to `Cc1nc(Nc2ncc(-c3ccc(NC(=O)Nc4cc(C)on4)cc3)s2)cc(N2CCN(C)CC2)n1` [Compound 103, N-(5-methyl-3-isoxazolyl)-N′-[4-(2-[2-methyl-6-(4-methylpiperazino)-4-pyrimidinyl]amino-1,3-thiazol-5-yl)phenyl]urea], the 50% inhibitory concentration (IC50) on Aurora A (bound in μM) is under 1000 nM.

Turning to `CN1CCN(Cc2ccc(C(=O)Nc3cc(-c4ccc(NC(=O)Nc5cc(C(C)(C)C)on5)cc4)n[nH]3)cc2)CC1` [Compound 43, N1-(3-4-[([5-(tert-butyl)-3-isoxazolyl]aminocarbonyl)amino]phenyl-1H-5-pyrazolyl)-4-[(4-methylpiperazino)methyl]benzamide], the IC50 was 1 to 20 nM at wt-FLT3; under 100 nM on VEGFR1 (bound in nM); under 1000 nM at VEGFR1 (bound in μM); under 1 µM at VEGFR2 (bound in μM); 0.001 to 0.055 µM at VEGFR2 (ranges in nM); under 200 nM on Aurora A (bound in nM). For the same molecule, the IC50 at Aurora A (bound in μM) is under 1000 nM.

Regarding `CN1CCN(c2ccc(C(=O)Nc3cc(-c4ccc(NC(=O)Nc5ccccc5)cc4)n[nH]3)cc2)CC1` [Compound 30, N1-(3-4-[(anilinocarbonyl)amino]phenyl-1H-5-pyrazolyl)-4-(4-methylpiperazino)benzamide], the IC50 was 1 to 20 nM at wt-FLT3, under 1 µM on VEGFR2 (bound in μM), 0.001 to 0.055 µM at VEGFR2 (ranges in nM) and under 1000 nM on Aurora A (bound in μM).

Consider `Cc1cc(NC(=O)Nc2ccc(-c3cnc(NC(=O)c4ccc(OCCN5CCOCC5)cc4)s3)cc2)no1` [Compound 120, N1-5-[4-([(5-methyl-3-isoxazolyl)amino]carbonylamino)phenyl]-1,3-thiazol-2-yl-4-(2-morpholinoethoxy)benzamide], for which the IC50 on Aurora A (bound in nM) was under 200 nM.

As for `Cc1nc(Nc2cc(-c3ccc(CNC(=O)OCc4ccccc4)cc3)n[nH]2)cc(N2CCN(C)CC2)n1` [Compound 96, Benzyl-N-[4-(5-[2-methyl-6-(4-methylpiperazino)-4-pyrimidinyl]amino-1H-3-pyrazolyl)benzyl]carbamate], the IC50 on wt-FLT3 is 1 to 20 nM; at VEGFR1 (bound in μM), under 1000 nM; at VEGFR2 (bound in μM), under 1 µM; at VEGFR2 (ranges in nM), 0.055 to 0.4 µM.

Source of the values: patent US9255072B2, “Pyrazole compounds and thiazole compounds as protein kinases inhibitors” (National Health Rsearch Institutes, priority 2011, dated 2016).
